Numbers after ± are expanded uncertainties. Values belong to the compound of their own block, whether it stands above or below them.
Assay: wn = mass fraction of the nth substance listed
Settings: 323 K, 101.3 kPa, Liquid, Pycnometric method

- mass density (w1 = 0.568): 1538.2 ± 6.6 kg/m3
SMILES: [Ca+2].[Cl-].[Cl-] [calcium chloride] + O

- mass density (w1 = 0.2722): 1175 ± 2.4 kg/m3
SMILES: [Cl-].[Na+] [sodium chloride] + O

- mass density (w1 = 0.8225): 2274.8 ± 7 kg/m3
SMILES: [Cl-].[Cl-].[Zn+2] [zinc chloride] + O

Source: the NIST ThermoML archive (doi:10.1021/acs.jced.9b00422)
